Results from patent US11912703B2, “6-azaindole compounds” (BRISTOL-MYERS SQUIBB COMPANY, priority 2017, dated 2024).
Like-named read-outs stand apart in the source and are kept apart here.

Columns and labels:
human TLR9 = human TLR9 (Homo sapiens (Human), UniProt Q9NR96); experiment: TLR9 inhibition reporter assay (HEK-Blue SEAP);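 further: SEAP driven by IFN-β minimal promoter carrying five NF-κB and AP-1 sites, 22 h at 37 °C, compounds 0.05 nM–50 µM, inhibition scaled between agonist-plus-DMSO and reference-inhibitor wells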
human TLR8 = human TLR8 (Homo sapiens (Human), UniProt Q9NR97); experiment: TLR8 inhibition reporter assay (HEK-Blue SEAP);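 further: SEAP driven by IFN-β minimal promoter with five NF-κB and AP-1 sites, compounds tested 0.05 nM to 50 µM, 22 h incubation, inhibition relative to agonist plus DMSO wells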
Experimental: HEK-Blue™-cells (Invivogen) overexpressing human TLR7, TLR8 or TLR9 receptors were used for screening inhibitors of these receptors using an inducible SEAP (secreted embryonic alkaline phosphatase) reporter gene under the control of the IFN-β minimal promoter fused to five NF-κB and AP-1-binding sites. Briefly, cells are seeded into Greiner 384 well plates (15000 cells per well for TLR7, 20,000 for TLR8 and 25,000 for TLR9) and then treated with test compounds in DMSO to yield a final dose response concentration range of 0.05 nM-50 μM. After a 30 minute compound pre-treatment at room temperature, the cells are then stimulated with a TLR7 ligand (gardiquimod at a final concentration of 7.5 μM), TLR8 ligand (R848 at a final concentration of 15.9 μM) or TLR9 ligand (ODN2006 at a final concentration of 5 nM) to activate NF-κB and AP-1 which induce the production of SEAP. After a 22 hour incubation at 37° C., 500 CO2, SEAP levels are determined with the addition of HEK-Blue™ Detection reagent (Invivogen), a cell culture medium that allows for detection of SEAP, according to manufacturer's specifications.

human TLR7 = human TLR7 (Homo sapiens (Human), UniProt Q9NYK1); experiment: TLR7 inhibition reporter assay (HEK-Blue SEAP); format: cell-based; details: HEK-Blue cells overexpressing human TLR7, gardiquimod 7.5 μM stimulation
[1] = read-out: TLR9 IC50; HEK-Blue cells overexpressing human TLR9, ODN2006 5 nM stimulation, SEAP reporter
[2] = read-out: TLR8 IC50; HEK-Blue cells overexpressing human TLR8, R848 15.9 μM stimulation, SEAP reporter
[3] = read-out: TLR9 IC50; HEK-Blue cells overexpressing human TLR9; ODN2006 5 nM stimulation; SEAP reporter
[4] = read-out: TLR8 IC50; HEK-Blue cells overexpressing human TLR8; R848 15.9 μM stimulation; SEAP reporter

Chain of human TLR8 (Q9NR97 27-1041): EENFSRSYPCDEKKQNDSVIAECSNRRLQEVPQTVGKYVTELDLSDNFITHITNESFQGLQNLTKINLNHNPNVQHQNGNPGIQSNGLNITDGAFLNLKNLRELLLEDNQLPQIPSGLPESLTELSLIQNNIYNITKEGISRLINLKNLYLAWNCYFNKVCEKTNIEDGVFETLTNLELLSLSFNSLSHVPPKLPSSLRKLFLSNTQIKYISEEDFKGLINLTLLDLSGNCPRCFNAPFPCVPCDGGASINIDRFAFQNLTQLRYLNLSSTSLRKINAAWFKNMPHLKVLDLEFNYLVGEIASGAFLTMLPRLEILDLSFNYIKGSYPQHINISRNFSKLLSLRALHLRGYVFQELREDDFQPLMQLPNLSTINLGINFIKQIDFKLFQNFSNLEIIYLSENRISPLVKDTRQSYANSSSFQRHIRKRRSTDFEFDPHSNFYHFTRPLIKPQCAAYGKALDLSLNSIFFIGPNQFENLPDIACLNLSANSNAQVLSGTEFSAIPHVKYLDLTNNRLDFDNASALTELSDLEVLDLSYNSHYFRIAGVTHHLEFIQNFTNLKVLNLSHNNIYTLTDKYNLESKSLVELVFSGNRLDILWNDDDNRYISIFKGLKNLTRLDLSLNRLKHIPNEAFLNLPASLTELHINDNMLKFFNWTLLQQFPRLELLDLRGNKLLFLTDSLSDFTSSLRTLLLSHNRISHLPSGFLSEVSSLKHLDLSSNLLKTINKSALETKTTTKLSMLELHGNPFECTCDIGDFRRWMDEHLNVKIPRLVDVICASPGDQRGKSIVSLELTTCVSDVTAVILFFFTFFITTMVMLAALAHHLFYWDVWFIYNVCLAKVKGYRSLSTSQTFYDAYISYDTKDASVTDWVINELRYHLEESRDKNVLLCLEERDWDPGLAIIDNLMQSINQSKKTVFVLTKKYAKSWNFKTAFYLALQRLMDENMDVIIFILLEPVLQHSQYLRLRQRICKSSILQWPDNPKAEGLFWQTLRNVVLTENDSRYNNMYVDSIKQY
Chain of human TLR7 (Q9NYK1 27-1049): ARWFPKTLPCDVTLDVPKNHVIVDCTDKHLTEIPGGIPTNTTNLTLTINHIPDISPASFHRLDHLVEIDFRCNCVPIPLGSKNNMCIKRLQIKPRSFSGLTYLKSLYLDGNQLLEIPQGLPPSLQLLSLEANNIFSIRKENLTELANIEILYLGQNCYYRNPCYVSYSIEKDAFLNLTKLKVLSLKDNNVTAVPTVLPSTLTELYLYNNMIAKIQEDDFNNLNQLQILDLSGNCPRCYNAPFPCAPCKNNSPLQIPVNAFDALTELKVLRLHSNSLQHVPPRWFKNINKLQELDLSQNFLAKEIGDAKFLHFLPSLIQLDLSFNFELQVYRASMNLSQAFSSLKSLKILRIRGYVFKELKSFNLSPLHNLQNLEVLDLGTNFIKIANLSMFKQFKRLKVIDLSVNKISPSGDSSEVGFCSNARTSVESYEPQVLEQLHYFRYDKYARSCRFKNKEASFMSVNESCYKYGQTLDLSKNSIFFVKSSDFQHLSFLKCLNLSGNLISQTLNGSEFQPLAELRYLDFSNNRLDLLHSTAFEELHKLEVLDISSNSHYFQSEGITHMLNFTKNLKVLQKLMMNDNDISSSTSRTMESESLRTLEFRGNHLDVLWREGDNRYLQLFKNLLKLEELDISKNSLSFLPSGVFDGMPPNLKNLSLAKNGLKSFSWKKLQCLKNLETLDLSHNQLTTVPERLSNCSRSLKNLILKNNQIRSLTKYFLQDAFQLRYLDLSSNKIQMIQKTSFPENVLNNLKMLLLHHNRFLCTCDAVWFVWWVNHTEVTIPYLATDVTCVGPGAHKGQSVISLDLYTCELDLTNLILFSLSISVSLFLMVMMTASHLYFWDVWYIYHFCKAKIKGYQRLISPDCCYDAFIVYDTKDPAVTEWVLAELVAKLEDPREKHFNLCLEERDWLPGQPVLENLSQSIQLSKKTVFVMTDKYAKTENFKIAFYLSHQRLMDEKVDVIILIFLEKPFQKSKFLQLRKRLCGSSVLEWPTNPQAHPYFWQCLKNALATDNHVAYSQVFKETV
Chain of human TLR9 (Q9NR96 26-1032): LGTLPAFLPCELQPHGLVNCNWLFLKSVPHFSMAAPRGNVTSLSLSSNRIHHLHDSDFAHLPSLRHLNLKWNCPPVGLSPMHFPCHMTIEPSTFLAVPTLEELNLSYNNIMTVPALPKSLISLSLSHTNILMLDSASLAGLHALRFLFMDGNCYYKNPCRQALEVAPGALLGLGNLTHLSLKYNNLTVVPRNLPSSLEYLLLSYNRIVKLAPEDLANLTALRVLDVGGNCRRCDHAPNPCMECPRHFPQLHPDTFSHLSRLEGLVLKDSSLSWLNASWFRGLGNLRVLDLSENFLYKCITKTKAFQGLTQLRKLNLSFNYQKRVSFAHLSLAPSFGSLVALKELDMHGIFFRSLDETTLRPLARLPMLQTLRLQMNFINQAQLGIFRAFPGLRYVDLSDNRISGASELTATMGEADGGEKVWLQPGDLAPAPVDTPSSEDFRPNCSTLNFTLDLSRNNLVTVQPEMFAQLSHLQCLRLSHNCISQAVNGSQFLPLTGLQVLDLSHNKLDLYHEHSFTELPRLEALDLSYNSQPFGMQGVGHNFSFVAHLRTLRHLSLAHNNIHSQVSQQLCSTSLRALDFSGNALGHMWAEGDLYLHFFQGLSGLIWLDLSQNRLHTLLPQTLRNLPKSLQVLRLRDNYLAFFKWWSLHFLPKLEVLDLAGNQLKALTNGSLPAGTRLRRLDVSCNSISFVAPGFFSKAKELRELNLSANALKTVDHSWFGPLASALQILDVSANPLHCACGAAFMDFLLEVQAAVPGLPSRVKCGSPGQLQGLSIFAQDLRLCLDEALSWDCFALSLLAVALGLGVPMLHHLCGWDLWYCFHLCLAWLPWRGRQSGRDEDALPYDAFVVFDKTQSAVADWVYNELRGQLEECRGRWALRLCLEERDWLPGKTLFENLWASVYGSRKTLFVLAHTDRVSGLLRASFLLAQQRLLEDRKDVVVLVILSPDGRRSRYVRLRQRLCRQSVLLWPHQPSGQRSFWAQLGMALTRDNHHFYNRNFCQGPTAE

Cc1c(-c2[nH]c3cnc(C4CCC(NC5CCOCC5)CC4)c(F)c3c2C(C)C)cn2ncnc2c1C (stereo not drawn) [Example 134]
IC50 (human TLR9; [1]): 1020 nM | IC50 (human TLR8; [2]): 0.27 nM | IC50 (human TLR7): 0.98 nM

COc1cc(-c2[nH]c3cnc(C4CCNCC4)cc3c2C(C)C)cn2ncnc12 [Example 312]
IC50 (human TLR9; [1]): 920 nM | IC50 (human TLR8; [2]): 114 nM | IC50 (human TLR7): 8.5 nM

Cc1c(-c2[nH]c3cnc(C4CCN(CC(N)=O)CC4)cc3c2C(C)C)cn2ncnc2c1C [Example 23]
IC50 (human TLR9; [1]): 147 nM | IC50 (human TLR8; [2]): 3.4 nM | IC50 (human TLR7): 2.6 nM

COc1cc(-c2[nH]c3cnc(N4CCN(CC(N)=O)CC4)c(F)c3c2C(C)C)cn2ncnc12 [Example 358]
IC50 (human TLR9; [1]): > 50000 nM | IC50 (human TLR8; [2]): 3.8 nM | IC50 (human TLR7): 3.6 nM

Cc1c(-c2[nH]c3cnc(N4CCN(CC(=O)N(C)C)C[C@H]4C)c(F)c3c2C(C)C)cn2ncnc2c1C [Example 466]
IC50 (human TLR9; [3]): 47500 nM | IC50 (human TLR8; [4]): 2.5 nM | IC50 (human TLR7): 16 nM

Cc1c(-c2[nH]c3cnc(N4CCN(C)C[C@H]4C)c(F)c3c2C(C)C)cn2ncnc2c1C [Example 454]
IC50 (human TLR9; [3]): 10900 nM | IC50 (human TLR8; [4]): 0.05 nM | IC50 (human TLR7): 0.05 nM

COCCNC1CCN(c2ncc3[nH]c(-c4cc(OC)c5ncnn5c4)c(C(C)C)c3c2F)CC1 [Example 99]
IC50 (human TLR9; [1]): 3980 nM | IC50 (human TLR8; [2]): 0.41 nM | IC50 (human TLR7): 0.49 nM

COCCNC1CCC(c2cc3c(C(C)C)c(-c4cn5ncnc5c(C)c4C)[nH]c3cn2)CC1 (stereo not drawn) [Example 348]
IC50 (human TLR9; [1]): 468 nM | IC50 (human TLR8; [2]): 9 nM | IC50 (human TLR7): 3.5 nM

CNCC(=O)N1CCN(c2ncc3[nH]c(-c4cc(OC)c5ncnn5c4)c(C(C)C)c3c2C)CC1 [Example 98]
IC50 (human TLR9; [1]): 1200 nM | IC50 (human TLR8; [2]): 14 nM | IC50 (human TLR7): 4.7 nM

CCN1CCN(c2ncc3[nH]c(-c4cn5ncnc5c(C)c4C)c(C(C)C)c3c2F)CC1 [Example 433]
IC50 (human TLR9; [1]): 6910 nM | IC50 (human TLR8; [2]): 0.32 nM | IC50 (human TLR7): 3 nM

COc1cc(-c2[nH]c3cnc(N4CC5(C4)CN(C4COC4)C5)c(F)c3c2C(C)C)cn2ncnc12 [Example 369, 6-(4-fluoro-3-isopropyl-5-(6-(oxetan-3-yl)-2,6-diazaspiro[3.3]heptan-2-yl)-1H-pyrrolo[2,3-c]pyridin-2-yl)-8-methoxy-[1,2,4]triazolo[1,5-a]pyridine]
IC50 (human TLR9; [1]): > 50000 nM | IC50 (human TLR8; [2]): 23 nM | IC50 (human TLR7): 27 nM

Cc1c(-c2[nH]c3cnc(C4CCC(N5CCC5)CC4)c(F)c3c2C(C)C)cn2ncnc2c1C (stereo not drawn) [Example 165]
IC50 (human TLR9; [1]): 905 nM | IC50 (human TLR8; [2]): 0.62 nM | IC50 (human TLR7): 0.4 nM

CNCCN1CCC(c2cc3c(C)c(-c4ccc(OC)c(OC)c4)[nH]c3cn2)CC1 [Example 8]
IC50 (human TLR9; [1]): 258 nM | IC50 (human TLR8; [2]): 15900 nM | IC50 (human TLR7): 6640 nM

CCN(C)C1CCN(c2ncc3[nH]c(-c4cn5ncnc5c(C)c4C)c(C(C)C)c3c2F)CC1 [Example 83]
IC50 (human TLR9; [1]): 9100 nM | IC50 (human TLR8; [2]): 1.4 nM | IC50 (human TLR7): 1.3 nM

Cc1c(-c2[nH]c3cnc(N4CC5(CN(CC6CCC6)C5)C4)c(F)c3c2C(C)C)cn2ncnc2c1C [Example 404]
IC50 (human TLR9; [1]): 5810 nM | IC50 (human TLR8; [2]): 4 nM | IC50 (human TLR7): 32 nM

COc1cc(-c2[nH]c3cnc(N4CC5(CN(C)C5)C4)c(F)c3c2C(C)C)cn2ncnc12 [Example 378]
IC50 (human TLR9; [1]): 5110 nM | IC50 (human TLR8; [2]): 3.4 nM | IC50 (human TLR7): 6 nM

Cc1c(-c2[nH]c3cnc(N4CCN(CC(N)=O)CC4)c(C)c3c2C(C)C)cn2ncnc2c1C [Example 414]
IC50 (human TLR9; [1]): > 50000 nM | IC50 (human TLR8; [2]): 6.2 nM | IC50 (human TLR7): 41 nM

Cc1c(-c2[nH]c3cnc(C4CCC(NC5COC5)CC4)cc3c2C(C)C)cn2ncnc2c1C (stereo not drawn) [Example 346]
IC50 (human TLR9; [1]): 750 nM | IC50 (human TLR8; [2]): 14 nM | IC50 (human TLR7): 3.3 nM

CNC(=O)CN1CCN(c2ncc3[nH]c(-c4cn5ncnc5c(C)c4C)c(C(C)C)c3c2C)CC1 [Example 413]
IC50 (human TLR9; [1]): > 50000 nM | IC50 (human TLR8; [2]): 6.1 nM | IC50 (human TLR7): 29 nM

Cc1c(-c2[nH]c3cnc(N4CCN(CCS(C)(=O)=O)CC4)c(C)c3c2C(C)C)cn2ncnc2c1C [Example 415]
IC50 (human TLR9; [1]): > 50000 nM | IC50 (human TLR8; [2]): 5.2 nM | IC50 (human TLR7): 26 nM

Cc1cc(-c2[nH]c3cnc(C4CCN(CC(F)(F)F)CC4)c(F)c3c2C(C)C)cn2ncnc12 [Example 41]
IC50 (human TLR9; [1]): > 50000 nM | IC50 (human TLR8; [2]): 158 nM | IC50 (human TLR7): 36 nM

COc1cc(-c2[nH]c3cnc(N4CCN(CC5CCOCC5)CC4)c(F)c3c2C(C)C)cn2ncnc12 [Example 383]
IC50 (human TLR9; [1]): 5390 nM | IC50 (human TLR8; [2]): 0.31 nM | IC50 (human TLR7): 2.7 nM

Cc1c(-c2[nH]c3cnc(N4CCC(NC5COC5)CC4)c(F)c3c2C(C)C)cn2ncnc2c1C [Example 146]
IC50 (human TLR9; [1]): 6660 nM | IC50 (human TLR8; [2]): 0.46 nM | IC50 (human TLR7): 1.1 nM

Cc1c(-c2[nH]c3cnc(C4CCC(NCC5(C)COC5)CC4)c(F)c3c2C(C)C)cn2ncnc2c1C (stereo not drawn) [Example 171]
IC50 (human TLR9; [1]): 1960 nM | IC50 (human TLR8; [2]): 0.12 nM | IC50 (human TLR7): 0.43 nM
